Patent US20140243411A1 (priority 2011, published 2014)

How the values were obtained:
[1] = log D by partitioning into octanol and water phases; assay type: physicochemical; conditions: pH 6.0, octanol and water
Description: (§1) More than a dozen esters and amide derivatives of DTPA were synthesized. […] C2E5 is an oil with a viscosity of 163 cps at 25° C. […] The density of C2E5 was determined to be 1.119 g/mL. […] The intrinsic partition coefficient (log P) of C2E5 is difficult to measure due to its instability at high pH. Thus, the log D6.0 was determined by measuring the partitioning of C2E5 into octanol and water phases.

[2] = Pharmacokinetics of neat C2E5 and C2E5 non-aqueous gel, plasma LC/MS/MS (Example 9); assay type: in vivo, Sprague-Dawley (SD) rats; conditions: SD rat plasma; 200 mg/kg
Description: All animal studies were conducted according to a protocol approved by the University of North Carolina at Chapel Hill Institutional Animal Care and Use Committee (IACUC). Ten-week-old adult female Sprague-Dawley (SD) rats weighing from 200 to 300 g were used in these studies (Charles River Labs, Raleigh, N.C.). Food and water were given ad libitum. The animal room was kept at a controlled temperature (23° C.) and light cycle (light exposure from 8 AM to 8 PM). For the duration of the study, the rats were housed in metabolic cages individually with urine and feces collection until euthanasia at 24 h after neat C2E5 or C2E5 gel application.
Neat C2E5 (i.e., only C2E5) at a dose of 200 mg/kg was applied using a 1 mL syringe to the same size area as a positive control. […] The mass of neat C2E5 or C2E5 gel applied was recorded for each animal to permit actual dose determination. […] The animals were observed during the study period and the body weight of the animals was recorded at pre-dose and prior to necropsy.
Acidified plasma samples (100 μL) were first treated with 25 μL of ^13C—C2E5 stable-label internal standard (1000 ng/mL), followed by precipitation with MeCN (400 μL). […] After separation by liquid chromatography, the analytes and internal standard were detected on a triple quadrupole mass spectrometer using heated electrospray ionization (HESI-II) in the positive-ion mode. […]

[3] = Equilibrium solubility of C2E5 in aqueous media of varying pH; assay type: physicochemical; conditions: aqueous buffer, thermodynamic from solid
[4] = In vitro C2E5 metabolism studies using SD rat skin S9 fractions; assay type: in vitro ADME
[5] = Physical-chemical characterization: viscosity and density; assay type: physicochemical
Description: as §1
The solvent evaporation method was subsequently used to prepare the C2E5 non-aqueous gel formulations.

CCOC(=O)CN(CCN(CC(=O)OCC)CC(=O)OCC)CCN(CC(=O)OCC)CC(=O)OCC [Formulation C2E5, penta-substituted ethyl ester of DTPA]
logD [1]: 2.2 | C2E1 in plasma samples [2]: not detected | solubility thermodynamic ([3]; pH 5.7, room temperature): 20.3 mg/mL | solubility thermodynamic ([3]; pH 7.1, room temperature): 3 mg/mL | conversion of C2E5 to DTPA [4]: only minimally observed | density [5]: 1.119 g/mL | viscosity ([5]; 25° C.): 163 cps
